Data reported in ChEMBL document CHEMBL2406976, “Discovery of Inhibitors of Burkholderia pseudomallei Methionine Aminopeptidase with Antibacterial Activity” (ACS Med Chem Lett, 2013).
pIC50: −log10 of the molar value. Values after ≈ are worked out from the molar mass of the structure shown. Active and inactive are the calls of the source. No cut-off for these calls is given here.

How the values were obtained:
[1] = tested on: Burkholderia thailandensis; test: Antibacterial activity against Burkholderia thailandensis E264 assessed as bacterial growth inhibition at 0.5 mM after 24 hrs by two-fold dilution method relative to control; format: functional
[2] = tested on: Burkholderia thailandensis; test: Antibacterial activity against Burkholderia thailandensis E264 assessed as bacterial growth inhibition at 1 mM after 24 hrs by two-fold dilution method relative to DMSO-treated control; format: functional; conditions: for inhibition of growth at 1000 µM: E264, 24 h, read-out: GI
[3] = tested on: Burkholderia thailandensis; test: Bactericidal activity against Burkholderia thailandensis E264 assessed as cell death at 1 mM after 24 hrs by two-fold dilution method; format: functional
[4] = Inhibition of Burkholderia pseudomallei recombinant methionine aminopeptidase 1 using H-Met-Gly-Pro-7-amino-4-methylcoumarin hydrochloride as substrate measured for 10 mins by fluorescence assay in presence of human recombinant DPP4
[5] = tested on: Burkholderia thailandensis; test: Antibacterial activity against Burkholderia thailandensis E264 assessed as bacterial growth inhibition after 24 hrs by two-fold dilution method; format: functional; conditions: E264, 24 h
[6] = tested on: Burkholderia thailandensis; test: Bactericidal activity against Burkholderia thailandensis E264 assessed as cell death after 24 hrs by two-fold dilution method; format: functional; conditions: E264, 24 h
[7] = tested on: Burkholderia pseudomallei; test: Antibacterial activity against Burkholderia pseudomallei 1026b assessed as bacterial growth inhibition after 24 hrs by two-fold dilution method; format: functional, organism-based
[8] = tested on: Burkholderia pseudomallei; test: Antibacterial activity against Burkholderia pseudomallei Bp340 assessed as bacterial growth inhibition at 31.25 uM after 24 hrs by two-fold dilution method; format: functional, organism-based
[9] = target: Methionine aminopeptidase 1 (Homo sapiens, UniProt P53582); test: Inhibition of human methionine aminopeptidase 1
[10] = target: Methionine aminopeptidase 2 (Homo sapiens, UniProt P50579); test: Inhibition of human methionine aminopeptidase 2
Sequence of Methionine aminopeptidase 2 (P50579 whole entry): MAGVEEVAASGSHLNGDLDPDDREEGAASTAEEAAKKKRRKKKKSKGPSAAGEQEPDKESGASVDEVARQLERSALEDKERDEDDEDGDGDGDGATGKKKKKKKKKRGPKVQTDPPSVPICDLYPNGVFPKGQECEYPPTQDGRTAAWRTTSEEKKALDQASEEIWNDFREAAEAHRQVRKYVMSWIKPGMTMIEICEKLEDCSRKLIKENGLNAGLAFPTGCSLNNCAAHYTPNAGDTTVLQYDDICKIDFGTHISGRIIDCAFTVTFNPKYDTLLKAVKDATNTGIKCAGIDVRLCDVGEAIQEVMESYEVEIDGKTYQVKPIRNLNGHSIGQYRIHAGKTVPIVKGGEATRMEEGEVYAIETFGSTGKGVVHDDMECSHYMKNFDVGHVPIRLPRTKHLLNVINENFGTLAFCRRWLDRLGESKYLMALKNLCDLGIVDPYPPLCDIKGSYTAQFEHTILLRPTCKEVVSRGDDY

[11] = tested on: Burkholderia pseudomallei; test: Antibacterial activity against Burkholderia pseudomallei assessed as bacterial growth inhibition; format: functional

| SMILES | pIC50 [4] | inhibition of growth at 1000 µM [2] [%] | other results |
| --- | --- | --- | --- |
| NC[C@H]1O[C@H](O[C@H]2[C@H](O)[C@@H](O[C@H]3O[C@H](CO)[C@@H](O)[C@H](N)[C@H]3O)[C@H](N)C[C@@H]2N)[C@H](O)[C@@H](O)[C@@H]1O |  |  | inhibition [1]: Active |
| CN1CCN(Cc2cc([N+](=O)[O-])c3cccnc3c2O)CC1 | 7.15 |  | growth inhibition (GI) [2]: Active; growth inhibition (GI) [3]: inactive; MIC [5]: 500 µM (≈ 151 µg/mL) |
| O=[N+]([O-])c1cc(CN2CCCC2)c(O)c2ncccc12 | 7.52 |  | growth inhibition (GI) [2]: Active |
| Oc1c(CN2CCSCC2)cc(Cl)c2cccnc12 |  | > 50 |  |
| Cc1ccc(CSc2nnc(N)[nH]2)cc1 | 5.51 | ≤ 26 |  |
| O=[N+]([O-])c1ccc(O)c2ncccc12 [NITROXOLINE] |  |  | growth inhibition (GI) [2]: Active; MBC [6]: 250 µM (≈ 47.5 µg/mL); growth inhibition (GI) [7]: Active; MIC [5]: 31 µM (≈ 5.89 µg/mL); growth inhibition (GI) [8]: Active |
| Oc1c(CN2CCCCC2)cc(Cl)c2cccnc12 |  | > 50 | pIC50 [9]: < 4.30 |
| Oc1ccc(Cl)c2cccnc12 [CLOXYQUIN] |  | > 50 |  |
| O=S(=O)(O)c1ccc(O)c2ncccc12 |  | 9 | pIC50 [10]: < 4.82 |
| CC(C)(O/N=C(\C(=O)N[C@@H]1C(=O)N2C(C(=O)[O-])=C(C[n+]3ccccc3)CS[C@H]12)c1csc(N)n1)C(=O)O [CEFTAZIDIME] |  |  | MIC [11]: 1 µg/mL (≈ 1.83 µM) |
| Oc1cccc2cccnc12 [OXYQUINOLINE] |  | > 50 | pIC50 [9]: < 4.82 |
| CN1CCN(Cc2cc(Cl)c3cccnc3c2O)CC1 |  | > 50 |  |
| Nc1nnc(SCc2ccc(F)cc2)[nH]1 | 5.15 | ≤ 26 |  |
| CN(C)Cc1cc([N+](=O)[O-])c2cccnc2c1O | 7.40 |  | growth inhibition (GI) [2]: Active |
| Nc1nnc(SCc2ccc(F)c(F)c2)[nH]1 | < 3.60 | ≤ 26 |  |
| O=[N+]([O-])c1cc(CN2CCSCC2)c(O)c2ncccc12 | < 3.60 |  |  |
| Nc1nnc(SCc2ccc(Cl)cc2Cl)[nH]1 | 6.00 | ≤ 26 |  |
| O=[N+]([O-])c1cc(CN2CCOCC2)c(O)c2ncccc12 | 4.22 |  |  |
| CC(C)c1ccc(CSc2nnc(N)[nH]2)cc1 | < 3.60 | ≤ 26 |  |
| CC(C)(C)c1ccc(CSc2nnc(N)[nH]2)cc1 | < 3.60 | ≤ 26 |  |
| Oc1c(CN2CCOCC2)cc(Cl)c2cccnc12 |  | > 50 |  |
| Cc1ccc2cccc(O)c2n1 [8-HYDROXY QUINALDINE] |  | > 50 | pIC50 [9]: < 4.82; pIC50 [10]: < 4.82 |
